Reference: US20100016319A1, “ARYLMETHYLENE UREA DERIVATIVE AND USE THEREOF” (TORAY INDUSTRIES, INC. a corporation of Japan, priority 2005, published 2010)

Tests used:
DSS-induced colitis = test: Dextran sulfate sodium (DSS)-induced colitis model of mice, rectal bleeding score; type: in vivo, BALB/c mice; details: 30 mg/kg orally every day from Day 27 to Day 31; for amelioration of symptoms / improvement in the rectal bleeding score (in words): Day 32; for rectal bleeding score on Day 32 (0: occult blood-negative, 2: occult blood-positive, 4: apparent bleeding): female BALB/c mice, 3 w/v % DSS
Description: (§1) Female BALB/c mice (Japan SLC) of 7 to 9 weeks old were allowed to freely drink 3 w/v % dextran sulfate sodium (DSS) for 5 to 7 days, and then to freely drink sterilized distilled water for 5 days. This procedure was repeated 3 times to induce colitis. The uninduced (background) group was allowed to freely drink sterilized distilled water. The compound described in Example 2 was orally administered to the mice at a dose of 30 mg/kg every day from Day 27 to Day 31 counted from the start of the test, and rectal bleeding was scored (0: occult blood-negative, 2: occult blood-positive, 4: apparent bleeding) by using the method described by Murthy et al (see, for example, Dig Dis Sci., 38, 1722 (1993)).
(§2) On the other hand, the same test as in Example 452 was repeated except that 1-(4-(pyridin-4-yloxy)benzyl)-3-(3-t-butylisoxazol-5-yl)urea (the structural formula thereof is shown below) which is a compound included in WO 04/037789 was used in place of the compound of Example 2. The score on Day 32 (the last day of the test) of the colitis-uninduced group was 0, while the score of the colitis-induced group rose to 1.2±0.2.
as §1, with “Example 10” for “Example 2”
as §2, with “Example 453” for “Example 452”, “that 1-(4-(pyridin-4-yloxy)benzyl)-3-([…])urea” for “that 1-(4-(pyridin-4-yloxy)benzyl)-3-(3-t-butylisoxazol-5-yl)urea”, “Example 10.” for “Example 2.”

[1] = test system: TNFα production in human whole blood; test: Inhibitory activity on LPS-induced TNFα production in human whole blood; type: cell-based; details: LPS stimulation, 37° C., 5 hours
Description: Inhibitory activities of the arylmethylene urea derivatives according to the present invention to the production of TNFα induced by stimulation with a lipopolysaccharide (LPS) were investigated using human whole blood.
After mixing each of the compounds of the present invention with human blood in a 96-well flat-bottom plate, the lipopolysaccharide (LPS) was added and the mixture was allowed to react at 37° C. for 5 hours. After the reaction, the resulting mixture was centrifuged at room temperature for 15 minutes, and supernatant of the resultant was recovered. For the quantification of TNFα in the supernatant, human cytokine kit (CIS biointernational) was used.

[2] = test system: rhythmic bladder contractions; test: Rhythmic bladder contractions model in anesthetized rats; type: in vivo, SD rats; details: i.v., 10 mg/kg; 10 minutes before and after administration; FIG. 2
Excerpt: Using anesthetized rat rhythmic bladder contractions model, the inhibitory effect of the arylmethylene urea derivatives of the present invention on the detrusor hyperreflexia was investigated.
Female SD rats were anesthetized with an intraperitoneal injection of urethane (1.0 g/kg). A polyethylene tube was inserted from external urethral orifice into the bladder and the tube was fixed by ligating. The other end of the tube was equipped with a three-necked cock, and one of the necks thereof was connected to a pressure transducer for the measurement of intravesical pressure and the other neck was connected to a syringe for the infusion of physiological saline into the bladder. Thirty minutes after the surgery was completed, physiological saline in appropriate volume was infused via the tube in order to induce rhythmic bladder contractions. After stable rhythmic bladder contractions were obtained, a solution of each test compound or the solvent thereof was administered from a caudal vein in a volume of 0.5 mL/kg, and the effect on the frequency of bladder contractions was investigated. As the test compounds, the compounds of Examples 2 and 9 were used.
In each of the figures, the ordinate indicates the number of rhythmic bladder contractions for 10 minutes before and after administration of the compound.

SMILES	IC50 [1]	further results
CC(C)(C)c1cc(NC(=O)NCc2ccc(Oc3ccncc3)cc2)on1 [1-(4-(pyridin-4-yloxy)benzyl)-3-(3-t-butylisoxazol-5-yl)urea, reference compound]	–	amelioration of symptoms / improvement in the rectal bleeding score (in words) (DSS-induced colitis): improvement in the score was not observed; rectal bleeding score on Day 32 (0: occult blood-negative, 2: occult blood-positive, 4: apparent bleeding) (DSS-induced colitis): 1.1±0.2
CC(C)(C)c1cc(NC(=O)NCc2ccc(Oc3ccncc3)cc2)no1 [reference compound]	–	amelioration of symptoms / improvement in the rectal bleeding score (in words) (DSS-induced colitis): improvement in the score was not observed; rectal bleeding score on Day 32 (0: occult blood-negative, 2: occult blood-positive, 4: apparent bleeding) (DSS-induced colitis): 1.3±0.3
CCN(CC)CCCNc1nccc(Oc2ccccc2CNC(=O)Nc2cc(C(C)(C)C)nn2-c2ccc(C)cc2)n1 [Example 18, 1-(2-(2-(3-(diethylamino)propylamino)pyrimidin-4-yloxy)benzyl)-3-(3-t-butyl-1-p-tolyl-1H-pyrazol-5-yl)urea]	311 nM	–
COCCN1CCN(c2nccc(Oc3ccccc3CNC(=O)Nc3cc(C(C)(C)C)nn3-c3ccc(C)cc3)n2)CC1 [Example 12, 1-(2-(2-(4-(2-methoxyethyl)piperazin-1-yl)pyrimidin-4-yloxy)benzyl)-3-(3-t-butyl-1-p-tolyl-1H-pyrazol-5-yl)urea]	268 nM	–
Cc1ccc(-n2nc(C(C)(C)C)cc2NC(=O)NCc2ccccc2Oc2ccnc(N3CCC(C(N)=O)CC3)n2)cc1 [Example 14, 1-(4-(2-(((((3-t-butyl-1-p-tolyl-1H-pyrazol-5-yl)amino)carbonyl)amino)methyl)phenoxy)pyrimidin-2-yl)-piperidin-4-carboxylic amide]	458 nM	–
Cc1ccc(-n2nc(C(C)(C)C)cc2NC(=O)NCc2ccccc2Oc2ccnc(N3CCN(C)CC3)n2)cc1 [Example 7, 1-(2-(2-(4-methylpiperazin-1-yl)pyrimidin-4-yloxy)benzyl)-3-(3-t-butyl-1-p-tolyl-1H-pyrazol-5-yl)urea]	296 nM	melting point: 149.5 °C
Cc1ccc(-n2nc(C(C)(C)C)cc2NC(=O)NCc2ccccc2Oc2ccnc(NCCC3CCCN3C)n2)cc1 (stereo not shown) [Example 20, 1-(2-(2-(2-(1-methylpyrrolidin-2-yl)ethylamino)pyrimidin-4-yloxy)benzyl)-3-(3-t-butyl-1-p-tolyl-1H-pyrazol-5-yl)urea]	343 nM	–
Cc1ccc(-n2nc(C(C)(C)C)cc2NC(=O)NCc2cc(F)cc(C)c2Oc2ccnc(Cl)n2)cc1 [Example 85, 1-(2-(2-chloropyrimidin-4-yloxy)-3-methyl-5-fluorobenzyl)-3-(3-t-butyl-1-p-tolyl-1H-pyrazol-5-yl)urea]	422 nM	–
Cc1ccc(-n2nc(CC(C)(C)C)cc2NC(=O)NCc2ccccc2Oc2ccnc(N3CCOCC3)n2)cc1 [Example 28, 1-(2-(2-morpholinopyrimidin-4-yloxy)benzyl)-3-(3-neopentyl-1-p-tolyl-1H-pyrazol-5-yl)urea]	513 nM	–
Cc1ccc(-n2nc(C(C)(C)C)cc2NC(=O)NCc2ccccc2Oc2ccnc(NCCCN(C)C)n2)cc1 [Example 11, 1-(2-(2-(3-(dimethylamino)propylamino)pyrimidin-4-yloxy)benzyl)-3-(3-t-butyl-1-p-tolyl-1H-pyrazol-5-yl)urea]	249 nM	–
CC(=O)N1CCN(c2nccc(Oc3ccccc3CNC(=O)Nc3cc(C(C)(C)C)nn3-c3ccc(C)cc3)n2)CC1 [Example 10, 1-(2-(2-(4-acetylpiperazin-1-yl)pyrimidin-4-yloxy)benzyl)-3-(3-t-butyl-1-p-tolyl-1H-pyrazol-5-yl)urea]	1040 nM	amelioration of symptoms / improvement in the rectal bleeding score (in words) (DSS-induced colitis): marked amelioration of symptoms was observed; rectal bleeding score on Day 32 (0: occult blood-negative, 2: occult blood-positive, 4: apparent bleeding) (DSS-induced colitis): 0.6±0.3
COc1cc(-n2nc(C(C)(C)C)cc2NC(=O)NCc2ccccc2Oc2ccnc(N3CCOCC3)n2)ccc1C [Example 56, 1-(2-(2-morpholinopyrimidin-4-yloxy)benzyl)-3-(3-t-butyl-1-(3-methoxy-4-methylphenyl)-1H-pyrazol-5-yl)urea]	485 nM	–
Cc1ccc(-n2nc(C(C)(C)C)cc2NC(=O)NCc2ccccc2Oc2cc(N3CCOCC3)ncn2)cc1 [Example 5, 1-(2-(6-morpholinopyrimidin-4-yloxy)benzyl)-3-(3-t-butyl-1-p-tolyl-1H-pyrazol-5-yl)urea]	843 nM	melting point: 128.5 °C
Cc1ccc(-n2nc(C(C)(C)C)cc2NC(=O)NCc2ccccc2Oc2cc(C)nc(N3CCOCC3)n2)cc1 [Example 98, 1-(2-(6-methyl-2-morpholinopyrimidin-4-yloxy)benzyl)-3-(3-t-butyl-1-p-tolyl-1H-pyrazol-5-yl)urea]	298 nM	–
Cc1ccc(-n2nc(C(C)(C)C)cc2NC(=O)NCc2cc(F)ccc2Oc2ccnc(N3CCOCC3)n2)cc1 [Example 9, 1-(2-(2-morpholinopyrimidin-4-yloxy)-5-fluorobenzyl)-3-(3-t-butyl-1-p-tolyl-1H-pyrazol-5-yl)urea]	231 nM	effect on the number of rhythmic bladder contractions [2]: inhibited the rhythmic bladder contractions statistically significantly
Cc1ccc(-n2nc(C(C)(C)C)cc2NC(=O)NCc2ccccc2Oc2cc(N3CCCC(C(N)=O)C3)ncn2)cc1 (stereo not shown) [Example 82, 1-(6-(2-(3-(5-t-butyl-2-p-tolyl-2H-pyrazol-3-yl)-ureidomethyl)phenoxy)pyrimidin-4-yl)piperidin-3-carboxylic amide]	354 nM	–
Cc1ccc(-n2nc(C(C)(C)C)cc2NC(=O)NCc2ccccc2Oc2ccnc(N3CCCC(C(N)=O)C3)n2)cc1 (stereo not shown) [Example 13, 1-(4-(2-(((((3-t-butyl-1-p-tolyl-1H-pyrazol-5-yl)amino)carbonyl)amino)methyl)phenoxy)pyrimidin-2-yl)-piperidin-3-carboxylic amide]	496 nM	–
Cc1ccc(-n2nc(C(C)(C)C)cc2NC(=O)NCc2ccccc2Oc2ccnc(NCCCN3CCCC3=O)n2)cc1 [Example 6, 1-(2-(2-(3-(2-oxo-pyrrolidin-1-yl)propylamino)pyrimidin-4-yloxy)benzyl)-3-(3-t-butyl-1-p-tolyl-1H-pyrazol-5-yl)urea]	119 nM	–
